Results on six molecules are retold here after patent US4257941A, “Polycyclic nitrogen-containing compounds” (BASF Aktiengesellschaft, priority 1976, dated 1981).

Molecules are shown by their SMILES. Like-named read-outs stand apart in the source and are kept apart here.

Holding throughout (type): in vivo
One assay deals with soybeans. The experiment in a line: Growth of roots and shoots of soybeans, hydroponic (Example 16). The note with it: for Root dry substance rel. / Root length rel. / Shoot dry substance rel. / Shoot length rel.: control 100. How it is done: Young soybean plants grown in quartz sand were transferred to hydroponic treatment in 4 liter vessels and provided with a sufficient supply of nutrient solution and trace elements. The active ingredients were added (0.25 mg/vessel=0.06 ppm; 1.0 mg/vessel=0.25 ppm; 2.5 mg/vessel=0.63 ppm) at a plant height of approx. 22 cm. The plants were in continuous contact with the active ingredients. […] The roots were also shorter, but the plants had more and stronger shoots.

The next assay relates to Lamium spp. As to the kind of experiment: Herbicidal action (Example 25). As to the method:
(§1) Paraffined paper cups having a volume of 170 cm^3 were filled with a sandy loam, and the seeds of the test plants sown therein, separated by species. (The species are also listed below.)
(§2) In the first group, treatment was effected immediately after sowing and before germination of the seeds (preemergence treatment=soil treatment). Shallow sown seeds not completely covered with soil came into contact with the active ingredients. In the second group, the plants were treated postemergence (=leaf treatment) at a growth height of from 2 to 8 cm, depending on the rate of growth and shape of the species concerned. The compounds were suspended or emulsified in water and applied with the aid of fine nozzles. The soil and plants were thoroughly sprinkler irrigated for the duration of the experiment. The cups were placed in the greenhouse and kept in the temperature range 12°-25° C. or 18°-35° C., depending on the temperature requirements of the various species. After 2 to 6 weeks the action was assessed visually on a 0 to 100 scale, 0 denoting no damage and 100 denoting plants not germinated or completely destroyed.

In a further assay the test system is Poa annua. The experiment in a line: Herbicidal action (Example 25). The note with it: for pest or weed control at 2000 g/ha / pest or weed control at 4000 g/ha / pest or weed control at 8000 g/ha: Poa annua, read-out: percentage damage; for pest or weed control at 4000 g/ha: 4.0 kg/ha; for pest or weed control at 8000 g/ha: 8.0 kg/ha. How it is done: as §1, §2

The test system of another assay is Galium aparine. As to the kind of experiment: Herbicidal action (Example 25). The settings on record: read-out: percentage damage. How it is done: as §1, §2
In the next assay the test system is Solanum nigrum. The experiment in a line: Herbicidal action (Example 25). How it is done: as §1, §2
[1] abbreviates: post-emergence, postemergence, 2.0 kg/ha.
The mark [2] stands for this setting: pre-emergence, preemergence, 2.0 kg/ha.
Where [3] appears, read: post-emergence, postemergence, 4.0 kg/ha.
Where [4] appears, read: post-emergence, postemergence, 8.0 kg/ha.
The mark [5] stands for this setting: pre-emergence, preemergence, 4.0 kg/ha.
Where [6] appears, read: pre-emergence, preemergence, 8.0 kg/ha.

In the assay with soybeans (0.06 ppm), `Clc1ccc(N2N=NC3C4CC(C5N=NC45)C32)cc1` (stereo not drawn) [drawing 387] returned a Root dry substance of 13.5 g, a Root length of 28.3 cm, a Shoot dry substance of 39.0 g and a Shoot length of 70.7 cm. Besides, in the assay with soybeans (0.06 ppm), the “Root dry substance rel.” value was 97.1, the Root length rel. is 93.4, the “Shoot dry substance rel.” value is on record as 94.9 and the Shoot length rel. came out at 95.4. Moreover, in the assay with soybeans (0.25 ppm), the Root dry substance is 13.2 g, the Root length is listed as 24.7 cm, the Shoot dry substance was determined as 31.5 g and the Shoot length is 62.3 cm. Besides, in the assay on soybeans (0.25 ppm), the “Root dry substance rel.” value is 95.0, the Root length rel. was found to be 81.5, the “Shoot dry substance rel.” value stood at 76.6 and the Shoot length rel. amounted to 84.1. In the assay with soybeans (0.63 ppm), the Root dry substance stood at 15.0 g, the Root length is reported as 24.7 cm, the Shoot dry substance is 26.6 g and the Shoot length is 51.7 cm. In addition, in the assay on soybeans (0.63 ppm), the “Root dry substance rel.” value amounted to 107.9, the Root length rel. is 81.5, the “Shoot dry substance rel.” value turned out to be 64.7 and the Shoot length rel. is on record as 69.8.
For `CC(C)OC(=O)Nc1cccc(Cl)c1` [drawing 426], the percentage damage is on record as 50 percentage damage in the assay with Lamium spp. (postemergence, 2.0 kg/ha); 50 percentage damage in the assay on Lamium spp. (postemergence, 4.0 kg/ha); 90 percentage damage in the assay on Lamium spp. (postemergence, 8.0 kg/ha); 72 percentage damage in the assay on Lamium spp. (preemergence, 2.0 kg/ha); 90 percentage damage in the assay with Lamium spp. (preemergence, 4.0 kg/ha); 95 percentage damage with Lamium spp. (preemergence, 8.0 kg/ha). Besides, the percentage damage with Solanum nigrum (postemergence, 2.0 kg/ha) is given as 22 percentage damage; in the assay with Solanum nigrum (postemergence, 4.0 kg/ha) it was 22 percentage damage; in the assay on Solanum nigrum (postemergence, 8.0 kg/ha) it was 38 percentage damage; in the assay on Solanum nigrum (preemergence, 2.0 kg/ha), 85 percentage damage; in the assay with Solanum nigrum (preemergence, 4.0 kg/ha), 85 percentage damage; in the assay on Solanum nigrum (preemergence, 8.0 kg/ha), 90 percentage damage. Besides, the pest or weed control at 2000 g/ha was 30% with Poa annua (setting [1]), 100% in the assay with Poa annua (setting [2]), 0% with Galium aparine (setting [1]) and 88% in the assay with Galium aparine (setting [2]). The pest or weed control at 4000 g/ha in the assay with Poa annua (post-emergence, postemergence) worked out at 30%; with Poa annua (pre-emergence, preemergence), 100%; in the assay on Galium aparine (setting [3]), 0%; in the assay on Galium aparine (setting [5]), 80%. Moreover, the pest or weed control at 8000 g/ha in the assay on Poa annua (post-emergence, postemergence) was 42%; in the assay with Poa annua (pre-emergence, preemergence) it was 100%; in the assay with Galium aparine (setting [4]), 10%; in the assay on Galium aparine (setting [6]) it was 88%.
With `CN(C)C(=O)Nc1ccc(Oc2ccccc2)cc1` [drawing 427], the percentage damage is 75 percentage damage with Lamium spp. (postemergence, 2.0 kg/ha); 85 percentage damage in the assay with Lamium spp. (postemergence, 4.0 kg/ha); 85 percentage damage in the assay with Lamium spp. (postemergence, 8.0 kg/ha); 50 percentage damage with Lamium spp. (preemergence, 2.0 kg/ha); 65 percentage damage in the assay on Lamium spp. (preemergence, 4.0 kg/ha); 75 percentage damage in the assay with Lamium spp. (preemergence, 8.0 kg/ha). The percentage damage in the assay with Solanum nigrum (postemergence, 2.0 kg/ha) is on record as 100 percentage damage; in the assay on Solanum nigrum (postemergence, 4.0 kg/ha) it was 100 percentage damage; in the assay with Solanum nigrum (postemergence, 8.0 kg/ha), 100 percentage damage; with Solanum nigrum (preemergence, 2.0 kg/ha), 75 percentage damage; with Solanum nigrum (preemergence, 4.0 kg/ha) it was 80 percentage damage; with Solanum nigrum (preemergence, 8.0 kg/ha), 90 percentage damage. The pest or weed control at 2000 g/ha in the assay with Poa annua (setting [1]) was determined as 30%; in the assay with Poa annua (setting [2]), 50%; with Galium aparine (setting [1]) it was 0%; in the assay on Galium aparine (setting [2]), 60%. The pest or weed control at 4000 g/ha in the assay with Poa annua (post-emergence, postemergence) was 30%; with Poa annua (pre-emergence, preemergence), 58%; in the assay on Galium aparine (setting [3]), 0%; in the assay with Galium aparine (setting [5]), 80%. For the same molecule, the pest or weed control at 8000 g/ha was determined as 30% with Poa annua (post-emergence, postemergence); 65% with Poa annua (pre-emergence, preemergence); 0% in the assay with Galium aparine (setting [4]); 75% in the assay on Galium aparine (setting [6]).
On to `C=CCN(CC=C)C(=O)CCl` [drawing 428], for which the percentage damage in the assay on Lamium spp. (postemergence, 2.0 kg/ha) worked out at 0 percentage damage; with Lamium spp. (postemergence, 4.0 kg/ha), 10 percentage damage; with Lamium spp. (postemergence, 8.0 kg/ha), 20 percentage damage; in the assay with Lamium spp. (preemergence, 2.0 kg/ha), 25 percentage damage; in the assay with Lamium spp. (preemergence, 4.0 kg/ha), 60 percentage damage; in the assay with Lamium spp. (preemergence, 8.0 kg/ha), 85 percentage damage. For the same molecule, the percentage damage was 10 percentage damage in the assay on Solanum nigrum (postemergence, 2.0 kg/ha); 10 percentage damage with Solanum nigrum (postemergence, 4.0 kg/ha); 20 percentage damage in the assay on Solanum nigrum (postemergence, 8.0 kg/ha); 0 percentage damage in the assay on Solanum nigrum (preemergence, 2.0 kg/ha); 15 percentage damage in the assay on Solanum nigrum (preemergence, 4.0 kg/ha); 25 percentage damage with Solanum nigrum (preemergence, 8.0 kg/ha). Further, the pest or weed control at 2000 g/ha amounted to 35% with Poa annua (setting [1]), 95% with Poa annua (setting [2]), 5% in the assay with Galium aparine (post-emergence) and 70% in the assay on Galium aparine (pre-emergence). The pest or weed control at 4000 g/ha in the assay on Poa annua (post-emergence, postemergence) was 35%; in the assay on Poa annua (pre-emergence, preemergence), 98%; in the assay on Galium aparine (post-emergence) it was 5%; in the assay with Galium aparine (pre-emergence) it was 80%. Besides, the pest or weed control at 8000 g/ha in the assay with Poa annua (post-emergence, postemergence) was 40%; with Poa annua (pre-emergence, preemergence), 100%; in the assay with Galium aparine (post-emergence), 5%; in the assay with Galium aparine (pre-emergence), 90%.
As to `c1ccc(N2N=NC3C4CC(C5N=NC45)C32)cc1` (stereo not drawn) [drawing 431], the percentage damage with Lamium spp. (postemergence, 2.0 kg/ha) was found to be 60 percentage damage; with Lamium spp. (postemergence, 4.0 kg/ha) it was 90 percentage damage; in the assay with Lamium spp. (postemergence, 8.0 kg/ha) it was 90 percentage damage; in the assay on Lamium spp. (preemergence, 2.0 kg/ha) it was 95 percentage damage; in the assay with Lamium spp. (preemergence, 4.0 kg/ha), 95 percentage damage; in the assay on Lamium spp. (preemergence, 8.0 kg/ha) it was 95 percentage damage. Besides, the percentage damage with Poa annua (preemergence, 2.0 kg/ha) was 100 percentage damage; in the assay with Solanum nigrum (postemergence, 2.0 kg/ha), 85 percentage damage; in the assay on Solanum nigrum (postemergence, 4.0 kg/ha) it was 100 percentage damage; with Solanum nigrum (postemergence, 8.0 kg/ha), 100 percentage damage; in the assay with Solanum nigrum (preemergence, 2.0 kg/ha), 95 percentage damage; with Solanum nigrum (preemergence, 4.0 kg/ha), 95 percentage damage. For the same molecule, the percentage damage with Solanum nigrum (preemergence, 8.0 kg/ha) was found to be 95 percentage damage. For the same molecule, the values for the pest or weed control at 2000 g/ha in the assay on Poa annua (setting [1]), in the assay with Galium aparine (setting [1]) and in the assay on Galium aparine (setting [2]) were 35%, 10% and 80%, respectively. Moreover, the pest or weed control at 4000 g/ha was determined as 40% in the assay on Poa annua (post-emergence, postemergence); 100% in the assay on Poa annua (pre-emergence, preemergence); 15% in the assay on Galium aparine (setting [3]); 100% in the assay with Galium aparine (setting [5]). Moreover, the pest or weed control at 8000 g/ha in the assay on Poa annua (post-emergence, postemergence) was 50%; with Poa annua (pre-emergence, preemergence) it was 100%; in the assay with Galium aparine (setting [4]), 20%; with Galium aparine (setting [6]), 100%.
For the molecule `c1csc(N2N=NC3C4CC(C5N=NC45)C32)n1` (stereo not drawn) [drawing 432], the percentage damage turned out to be 55 percentage damage in the assay with Lamium spp. (postemergence, 2.0 kg/ha); 60 percentage damage in the assay with Lamium spp. (postemergence, 4.0 kg/ha); 95 percentage damage in the assay with Lamium spp. (postemergence, 8.0 kg/ha); 95 percentage damage with Lamium spp. (preemergence, 2.0 kg/ha); 95 percentage damage in the assay on Lamium spp. (preemergence, 4.0 kg/ha); 95 percentage damage in the assay with Lamium spp. (preemergence, 8.0 kg/ha). Also, the percentage damage in the assay with Solanum nigrum (postemergence, 2.0 kg/ha) is reported as 90 percentage damage; in the assay on Solanum nigrum (postemergence, 4.0 kg/ha), 95 percentage damage; in the assay on Solanum nigrum (postemergence, 8.0 kg/ha) it was 100 percentage damage; with Solanum nigrum (preemergence, 2.0 kg/ha), 95 percentage damage; with Solanum nigrum (preemergence, 4.0 kg/ha) it was 95 percentage damage; in the assay on Solanum nigrum (preemergence, 8.0 kg/ha) it was 95 percentage damage. Further, the pest or weed control at 2000 g/ha in the assay with Poa annua (setting [1]) was 38%; in the assay on Poa annua (setting [2]), 80%; in the assay with Galium aparine (setting [1]), 10%; in the assay on Galium aparine (setting [2]), 72%. The pest or weed control at 4000 g/ha was found to be 52% with Poa annua (post-emergence, postemergence); 92% with Poa annua (pre-emergence, preemergence); 18% in the assay on Galium aparine (setting [3]); 98% in the assay on Galium aparine (setting [5]). The pest or weed control at 8000 g/ha in the assay with Poa annua (post-emergence, postemergence) came out at 68%; in the assay with Poa annua (pre-emergence, preemergence) it was 95%; in the assay with Galium aparine (setting [4]) it was 30%; in the assay on Galium aparine (setting [6]), 90%.
